These results are taken from paper PMC6443933, “Antagonizing Retinoic Acid-Related-Orphan Receptor Gamma Activity Blocks the T Helper 17/Interleukin-17 Pathway Leading to Attenuated Pro-inflammatory Human Keratinocyte and Skin Responses” (Frontiers in Immunology, 2019).

The subject of assay [1] is T1, RORβ.
T1 construct: RORα and RORβ we performed LBD-GAL4 reporter gene assays; expressed in transfected cells; host or cells: Jurkat cells stably carrying pGL4.35
The assay is described as follows: RORβ LBD-GAL4 reporter gene assay in Jurkat cells. The format is cell-based, human. How it is done:
Selectivity against other ROR family members was assessed in a GAL4 reporter gene assay as previously described ([44]). Briefly, Jurkat cells stably expressing the pGL4.35 plasmid (Promega) containing nine GAL4 binding sites inducing the transcription of the luciferase reporter gene were transiently transfected with the human RORα, RORβ or RORγt-LBD/GAL4-DBD constructs. After 24 h post-transfection, cells were incubated with Cpd A for an additional 24 h before luciferase activity was determined using an EnVision Multilabel Plate Reader (Perkin Elmer).

For assay [2], the system named is total CD4+ T-cells. Put plainly: Intracellular FACS of IL-17A/IFN-γ-producing CD4+ T-cells after Th17 polarization. It is filed as cell-based, human. The conditions noted are these: 3-day Th17 differentiation. The procedure:
Total, naive and memory CD4^+ T cells were isolated from Peripheral blood mononuclear cells (PBMCs) from healthy volunteers by density gradient centrifugation using Ficoll Paque (GE). Total, naive or memory CD4^+ T-cells were prepared by immunomagnetic separation using the respective CD4^+ T-cell enrichment kits resulting in untouched highly purified subsets (EasySep™, Stem Cell). Purity was assessed by flow cytometry and was between 95 and 98% for the total CD4^+ T-cells. The purity of naive (CD45RA^+CD45RO^−) and memory (CD45RA^−CD45RO^+) CD4^+T-cells ranged between 95 and 98%, respectively. For T-cell stimulation experiments, cells were treated as previously published ([44]). Briefly, T-cells were stimulated with plate-bound monoclonal antibodies against CD3 (1 μg/ml, clone OKT-3, BioXcell) and CD28 (1 μg/ml, clone CD28.2, BioLegend). For Th17 polarization assays, IL-6 (20 ng/ml), TGF-β1 (5 ng/ml), IL-1β (10 ng/ml), and IL-23 (10 ng/ml) were added. For Th1 polarization assays, IL-12 (10 ng/ml) and anti-IL-4 antibody (5 μg/ml), for Th2 polarizations, IL-4 (10 ng/ml) and anti-IFN-γ antibody (5 μg/ml) were added. For Th0 polarization assays, cells were only stimulated with CD3 and CD28 antibodies. […] Cytokine concentrations were quantified by ELISA according to the manufacturer's instructions (eBioscience or BioLegend). […]

Assay [3] concerns memory human CD4+ T-cells. The assay is described as follows: Th17 polarization of memory CD4+ T-cells, IL-17A ELISA. The format is cell-based. The settings on record: T-cell, 168 h, Th17 differentiation 7 days, read-out: IC50, IL-17A secretion. The procedure:
Total, naive and memory CD4^+ T cells were isolated from Peripheral blood mononuclear cells (PBMCs) from healthy volunteers by density gradient centrifugation using Ficoll Paque (GE). Total, naive or memory CD4^+ T-cells were prepared by immunomagnetic separation using the respective CD4^+ T-cell enrichment kits resulting in untouched highly purified subsets (EasySep™, Stem Cell). Purity was assessed by flow cytometry and was between 95 and 98% for the total CD4^+ T-cells. The purity of naive (CD45RA^+CD45RO^−) and memory (CD45RA^−CD45RO^+) CD4^+T-cells ranged between 95 and 98%, respectively. For T-cell stimulation experiments, cells were treated as previously published ([44]). Briefly, T-cells were stimulated with plate-bound monoclonal antibodies against CD3 (1 μg/ml, clone OKT-3, BioXcell) and CD28 (1 μg/ml, clone CD28.2, BioLegend). For Th17 polarization assays, IL-6 (20 ng/ml), TGF-β1 (5 ng/ml), IL-1β (10 ng/ml), and IL-23 (10 ng/ml) were added. For Th1 polarization assays, IL-12 (10 ng/ml) and anti-IL-4 antibody (5 μg/ml), for Th2 polarizations, IL-4 (10 ng/ml) and anti-IFN-γ antibody (5 μg/ml) were added. For Th0 polarization assays, cells were only stimulated with CD3 and CD28 antibodies. […] Cytokine concentrations were quantified by ELISA according to the manufacturer's instructions (eBioscience or BioLegend).

Assay [4] has as its system total human CD4+ T-cells. Put plainly: Th17 polarization of total CD4+ T-cells, cytokine ELISA. The settings on record: for IL-17 concentration in Th17 cell supernatants: 72 h. It is filed as cell-based. The procedure: (§1) Total, naive and memory CD4^+ T cells were isolated from Peripheral blood mononuclear cells (PBMCs) from healthy volunteers by density gradient centrifugation using Ficoll Paque (GE). Total, naive or memory CD4^+ T-cells were prepared by immunomagnetic separation using the respective CD4^+ T-cell enrichment kits resulting in untouched highly purified subsets (EasySep™, Stem Cell). Purity was assessed by flow cytometry and was between 95 and 98% for the total CD4^+ T-cells. The purity of naive (CD45RA^+CD45RO^−) and memory (CD45RA^−CD45RO^+) CD4^+T-cells ranged between 95 and 98%, respectively. For T-cell stimulation experiments, cells were treated as previously published ([44]). Briefly, T-cells were stimulated with plate-bound monoclonal antibodies against CD3 (1 μg/ml, clone OKT-3, BioXcell) and CD28 (1 μg/ml, clone CD28.2, BioLegend). For Th17 polarization assays, IL-6 (20 ng/ml), TGF-β1 (5 ng/ml), IL-1β (10 ng/ml), and IL-23 (10 ng/ml) were added. For Th1 polarization assays, IL-12 (10 ng/ml) and anti-IL-4 antibody (5 μg/ml), for Th2 polarizations, IL-4 (10 ng/ml) and anti-IFN-γ antibody (5 μg/ml) were added. For Th0 polarization assays, cells were only stimulated with CD3 and CD28 antibodies. Supernatants were collected after 3 or 7 days of incubation for total or naive/memory CD4^+ T-cell polarizations, respectively. Cytokine concentrations were quantified by ELISA according to the manufacturer's instructions (eBioscience or BioLegend).

Assay [5] has as its system skin-resident immunocompetent cells in human skin biopsies. The assay is described as follows: Ex vivo full-thickness human skin biopsy culture with Th17-inducing cocktail. The procedure: Full-thickness skin punch biopsies (8 mm diameter) were taken from surgical discards. Briefly, subcutaneous fat was removed from the skin ranging in size between 150 and 200 cm^2 and 8 mm punches were obtained. Samples were incubated in IMDM medium supplemented with Glutamax, 10% FCS, 1% non-essential amino acids, 1 mM Sodium pyruvate, Penicillin/Streptomycin and Amphotericin B (2.5 μg/ml). Incubations were done in the presence of various concentrations of Cpd A or DMSO vehicle control together with a Th17-inducing cocktail consisting of IL-6 (20 ng/ml), TGF-β1 (5 ng/ml), IL-1β (10 ng/ml), IL-23 (10 ng/ml), anti-IL-4/IFNγ (5 μg/ml), and anti-CD3/CD28 antibodies (1 μg/ml). On day 4, supernatants were harvested and analyzed for IL-17 cytokine expression, whereas skin punch biopsies were snap frozen, stored at −80°C and further processed for qRT-PCR analysis.
Total RNA from human Th17 cells (6 × 10^5 cells), RORγt-RORE HUT78 cells (4 × 10^5 cells) and HaCaT cells (6 × 10^4 cells) was extracted using RNeasy kit including a DNAse I digestion step according to the manufacturer‘s protocol (Qiagen). […] Quantitative RT-PCR analysis was performed using a TaqManViiA7 (Applied Biosystems). […]

For assay [6], the system named is human Th17 cells (total CD4+ T-cells). Put plainly: RORγt target gene expression in Th17 cells by qRT-PCR. It is filed as cell-based. The settings on record: Th17 polarization 72 h, concentration-dependent. How it is done: as §1
Total RNA from human Th17 cells (6 × 10^5 cells), RORγt-RORE HUT78 cells (4 × 10^5 cells) and HaCaT cells (6 × 10^4 cells) was extracted using RNeasy kit including a DNAse I digestion step according to the manufacturer‘s protocol (Qiagen). Frozen skin biopsies (8 mm punches) were resuspended in RLT buffer (Qiagen) containing 1% β-mercaptoethanol and homogenized using a Precellys-Cryolys device (Bertin Instruments) according to the manufacturer's instructions. cDNAs were prepared with the High Capacity cDNA Reverse Transcription Kit (Applied Biosystems). Quantitative RT-PCR analysis was performed using a TaqManViiA7 (Applied Biosystems). All runs were accompanied by the internal control gene human β-glucoronidase (Gus) (431088E). The samples were run in triplicate or in hexaplicate and normalized to Gus using the ΔΔCt method to provide arbitrary units representing relative expression levels. The following Taqman probes were used for RT-PCR (Thermo Scientific): RORC (Hs01076112_m1), IL17A (Hs00936345_m1), IL22 (Hs01574154_m1), IL26 (Hs00218189_m1), IL23R (Hs00332759_m1), CCR6 (Hs00218189_m1), NFKBIZ (Hs00355476_m), DEFB4A (Hs00823638_m1), IL36G (Hs00219742_m1), and CCL20 (Hs00355476_m1).

For `Cc1ccc(C(=O)Nc2cn3ccnc3c(CN3CCN(c4noc(C(C)(C)C)n4)[C@@H](C)C3)c2C)cn1` [Cpd A, (S)-N-(8-((4-(5-(tert-butyl)-1,2,4-oxadiazol-3-yl)-3-methylpiperazin-1-yl)methyl)-7-methylimidazo[1,2-a]pyridin-6-yl)-6-methylnicotinamide], in assay [1], the “activity toward RORβ (LBD-GAL4 reporter)” value is listed as “lacked activity”. Further, in assay [2], the “frequencies of IFN-γ+ cells” value is recorded as “not affected” and the “frequencies of IL-17A+ cells within the CD4+ T-cell population” value was “reduced”. For the same molecule, the IC50 in assay [3] worked out at 27 nM. In addition, the “IL-17 concentration in Th17 cell supernatants” value in assay [4] (0.13 nM (pharmacologically inactive concentration)) turned out to be 600 pg/mL. For the same molecule, the “IL-17 concentration in Th17 cell supernatants” value in assay [4] (10 μM (active concentration)) is 150 pg/mL. In assay [4] (Homo sapiens, T-cell, total CD4+ T-cells, Th17 polarization 72 h, ELISA, read-out: IC50, IL-17A secretion), the IC50 came to 39 nM. Besides, the “TNF-α concentration in Th17 cell supernatants” value in assay [4] (similar at low or high compound concentrations) is 4 ng/mL. In addition, the “h-BD2 (DEFB4A) gene expression in skin punches” value in assay [5] is reported as “significantly down-regulated”. Besides, the “IL-17A secretion by skin-resident immunocompetent cells” value in assay [5] (ex vivo skin punches, various concentrations) is recorded as “concentration-dependent inhibition”. For the same molecule, in assay [6], the CCR6 gene expression entry is listed as “significantly attenuated”, the IL17A gene expression result is “significantly attenuated”, the IL17F gene expression result is recorded as “significantly attenuated” and the IL22 gene expression entry is listed as “significantly attenuated”. In addition, in assay [6], the IL23R gene expression entry is recorded as “significantly attenuated” and the IL26 gene expression result is on record as “significantly attenuated”.
